Assay results as given in patent publication US6693108B2, “Inhibitors of c-JUN N terminal kinases (JNK) and other protein kinases” (Vertex Pharmaceuticals Incorporated, priority 1999, dated 2004).

Each compound was assayed against T1, activated JNK3 (Homo sapiens, UniProt P53779) (assay: JNK3 inhibition, spectrophotometric coupled-enzyme assay). Conditions: read-out: Activity in the JNK3 Inhibition Assay (Ki rating).
T1 construct: One such construct encodes amino acid residues Ser40-Glu402 of JNK3α1 and is preceded by Met and Gly residues; Met-Gly (initiation Met plus Gly added to create the NcoI site) (N); made in house; host or cells: E. coli BL21 (DE3)
Format: biochemical
Excerpt: A BLAST search of the EST database using the published JNK3α1 cDNA as a query identified an EST clone (#632588) that contained the entire coding sequence for human JNK3α1. Polymerase chain reactions (PCR) using pfu polymerase (Strategene) were used to introduce restriction sites into the cDNA for cloning into the pET-15B expression vector at the NcoI and BamHI sites. The protein was expressed in E. coli. […] This truncation corresponds to Ser 2 of JNK1 and JNK2 proteins, and is preceded by a methionine (initiation) and a glycine residue. The glycine residue was added in order to introduce an NcoI site for cloning into the expression vector. In addition, systematic C-terminal truncations were performed by PCR to identify a construct that give rise to diffraction-quality crystals.
5 mg of JNK3 was diluted to 0.5 mg/ml in 50 mM HEPES buffer, pH 7.5, containing 100 mM NaCl, 5 mM DTT, 20 mM MgCl2 and 1 mM ATP. GST-MKK7(DD) was added at a molar ratio of 1:2.5 GST-MKK7:JNK3. After incubation for 30 minutes at 25° C., the reaction mixture was concentrated 5-fold by ultrafiltration in a Centriprep-30 (Amicon, Beverly, Mass.), diluted to 10 ml and an additional 1 mM ATP added. This procedure was repeated three times to remove ADP and replenish ATP. The final addition of ATP was 5 mM and the mixture incubated overnight at 4° C.
The activated JNK3/GST-MKK7(DD) reaction mixture was exchanged into 50 mM HEPES buffer, pH 7.5, containing 5 mM DTT and 5% glycerol (w/v) by dialysis or ultrafiltration. The reaction mixture was adjusted to 1.1 M potassium phosphate, pH 7.5, and purified by hydrophobic interaction chromatography (at 25° C.) using a Rainin Hydropore column. […] Activated JNK3 (i.e. doubly phosphorylated JNK3) was stored at −70° C. at 0.25-1 mg/ml.
Compounds were assayed for the inhibition of JNK3 by a spectrophotometric coupled-enzyme assay. In this assay, a fixed concentration of activated JNK3 (10 nM) was incubated with various concentrations of a potential inhibitor dissolved in DMSO for 10 minutes at 30° C. in a buffer containing 0.1 M HEPES buffer, pH 7.5, containing 10 mM MgCl2, 2.5 mM phosphoenolpyruvate, 200 μM NADH, 150 μg/mL pyruvate kinase, 50 μg/mL lactate dehydrogenase, and 200 μM EGF receptor peptide. […] The reaction was initiated by the addition of 10 μM ATP and the assay plate is inserted into the spectrophotometer's assay plate compartment that was maintained at 30° C. The decrease of absorbance at 340 nm was monitored as a function of time. The rate data as a function of inhibitor concentration was fitted to competitive inhibition kinetic model to determine the Ki.

T1 sequence (P53779 40-402): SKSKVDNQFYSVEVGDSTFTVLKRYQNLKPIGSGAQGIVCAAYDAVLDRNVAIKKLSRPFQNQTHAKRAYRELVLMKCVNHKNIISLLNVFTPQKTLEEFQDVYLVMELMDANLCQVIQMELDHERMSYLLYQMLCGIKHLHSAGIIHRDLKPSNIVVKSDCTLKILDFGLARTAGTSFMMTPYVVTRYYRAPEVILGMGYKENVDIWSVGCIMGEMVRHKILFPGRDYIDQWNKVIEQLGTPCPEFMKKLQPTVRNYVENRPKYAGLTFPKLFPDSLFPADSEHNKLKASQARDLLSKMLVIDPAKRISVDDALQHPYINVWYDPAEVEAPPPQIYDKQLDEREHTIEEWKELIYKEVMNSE

| Ki [nM] | Compound |
| --- | --- |
| < 100 | Cc1onc(-c2ccccc2)c1-c1ccnc(Nc2cccc(CO)c2)c1 [IIA-134] |
| 100 to 1000 | Cc1onc(-c2ccccc2)c1-c1ccnc(Nc2cccc(CCC(=O)N[C@@H](C(=O)OC(C)(C)C)C(C)C)c2)c1 [IIA-135] |
| 100 to 1000 | Cc1onc(-c2ccccc2)c1-c1ccnc(Nc2ccc3ccccc3c2)n1 [IIAA-4] |
| < 100 | COc1ccc2cc(Nc3nccc(-c4c(-c5ccccc5)noc4C)n3)ccc2c1 [IIAA-10] |
| < 100 | Cc1onc(-c2ccccc2)c1-c1ccnc(Nc2ccc3c(c2)CCC3=O)n1 [IIAA-11] |
| < 100 | Cc1ccnc(Nc2nccc(-c3c(-c4ccccc4)noc3C)n2)c1 [IIAA-12] |
| < 100 | Cc1onc(-c2ccccc2)c1-c1ccnc(Nc2cccc3ccccc23)n1 [IIAA-13] |
| < 100 | COc1ccc2cc(Nc3nccc(-c4c(-c5c(F)cccc5F)noc4C)n3)ccc2c1 [IIAA-14] |
| 100 to 1000 | Cc1ccc2ccccc2c1Nc1nccc(-c2c(-c3ccccc3)noc2C)n1 [IIAA-15] |
| < 100 | COC(=O)c1ccc2cc(Nc3nccc(-c4c(-c5ccccc5)noc4C)n3)ccc2c1 [IIAA-16] |
| > 1000 | COc1ccc2ccccc2c1Nc1nccc(-c2c(-c3ccccc3)noc2C)n1 [IIAA-17] |
| 100 to 1000 | COCc1ccc2ccccc2c1Nc1nccc(-c2c(-c3ccccc3)noc2C)n1 [IIAA-18] |
| < 100 | COc1ccc2cc(Nc3nccc(-c4c(-c5ccccc5C)noc4C)n3)ccc2c1 [IIAA-19] |
| 100 to 1000 | Cc1ccc2cc(Nc3nccc(-c4c(-c5ccccc5C)noc4C)n3)ccc2n1 [IIAA-20] |
| 100 to 1000 | Cc1ccc2cc(Nc3nccc(-c4c(-c5cccc([N+](=O)[O-])c5)noc4C)n3)ccc2n1 [IIAA-22] |
| 100 to 1000 | Cc1ccc2cc(Nc3nccc(-c4c(-c5cccc(C#N)c5)noc4C)n3)ccc2n1 [IIAA-23] |
| < 100 | Cc1onc(-c2ccccc2)c1-c1ccnc(NC2CCCCC2)n1 [IIAA-24] |
| < 100 | Cc1onc(-c2ccccc2)c1-c1ccnc(NC2Cc3ccccc3C2)n1 [IIAA-25] |
| 100 to 1000 | Cc1onc(-c2ccccc2)c1-c1ccnc(NC2CCN(Cc3ccccc3)CC2)n1 [IIAA-27] |
| 100 to 1000 | Cc1onc(-c2ccccc2)c1-c1ccnc(NCC2CCCO2)n1 (stereo not drawn) [IIAA-29] |
| < 100 | CCOC(=O)N1CCC(Nc2nccc(-c3c(-c4ccccc4)noc3C)n2)CC1 [IIAA-31] |
| 100 to 1000 | Cc1onc(-c2ccccc2)c1-c1ccnc(NC2CCNCC2)n1 [IIAA-32] |
| < 100 | Cc1onc(-c2ccccc2)c1-c1ccnc(N[C@H]2CC[C@H](O)CC2)n1 [IIAA-36] |

| Ki [nM] | Compound |
| --- | --- |
| < 100 | Cc1onc(-c2ccccc2)c1-c1ccnc(NC2CCC(=O)CC2)n1 [IIAA-38] |
| 100 to 1000 | Cc1onc(-c2ccccc2)c1-c1ccnc(NC(=O)c2ccccc2)n1 [IIIA-1] |
| > 1000 | Cc1onc(-c2ccccc2)c1-c1ccnc(NC(=O)c2ccccc2Br)n1 [IIIA-2] |
| 100 to 1000 | Cc1onc(-c2ccccc2)c1-c1ccnc(NC(=O)c2ccccc2F)n1 [IIIA-3] |
| > 1000 | Cc1onc(-c2ccccc2)c1-c1ccnc(NC(=O)c2ccccc2Cl)n1 [IIIA-4] |
| > 1000 | Cc1ccccc1C(=O)Nc1nccc(-c2c(-c3ccccc3)noc2C)n1 [IIIA-5] |
| 100 to 1000 | Cc1cccc(C(=O)Nc2nccc(-c3c(-c4ccccc4)noc3C)n2)c1 [IIIA-6] |
| 100 to 1000 | COc1ccc(C(=O)Nc2nccc(-c3c(-c4ccccc4)noc3C)n2)cc1 [IIIA-7] |
| 100 to 1000 | COc1ccc(C(=O)Nc2nccc(-c3c(-c4ccccc4)noc3C)n2)cc1OC [IIIA-8] |
| > 1000 | COc1ccc(C(=O)Nc2nccc(-c3c(-c4ccccc4)noc3C)n2)c(OC)c1 [IIIA-9] |
| > 1000 | COc1cccc(OC)c1C(=O)Nc1nccc(-c2c(-c3ccccc3)noc2C)n1 [IIIA-10] |
| 100 to 1000 | Cc1onc(-c2ccccc2)c1-c1ccnc(NC(=O)c2ccc(C#N)cc2)n1 [IIIA-11] |
| 100 to 1000 | Cc1onc(-c2ccccc2)c1-c1ccnc(NC(=O)c2ccc(F)cc2)n1 [IIIA-14] |
| < 100 | Cc1onc(-c2ccccc2)c1-c1ccnc(NC(=O)c2cccs2)n1 [IIIA-15] |
| 100 to 1000 | COc1cc(C(=O)Nc2nccc(-c3c(-c4ccccc4C)noc3C)n2)cc(OC)c1OC [IIIA-18] |
| 100 to 1000 | COc1cccc(C(=O)Nc2nccc(-c3c(-c4ccccc4C)noc3C)n2)c1 [IIIA-19] |
| 100 to 1000 | COc1ccc(C(=O)Nc2nccc(-c3c(-c4ccccc4C)noc3C)n2)cc1 [IIIA-20] |
| 100 to 1000 | COc1cc(OC)cc(C(=O)Nc2nccc(-c3c(-c4ccccc4C)noc3C)n2)c1 [IIIA-21] |
| > 1000 | COc1cc(C(=O)Nc2nccc(-c3c(-c4ccccc4C(F)(F)F)noc3C)n2)cc(OC)c1OC [IIIA-22] |
| > 1000 | COc1cccc(C(=O)Nc2nccc(-c3c(-c4ccccc4C(F)(F)F)noc3C)n2)c1 [IIIA-23] |
| > 1000 | COc1ccc(C(=O)Nc2nccc(-c3c(-c4ccccc4C(F)(F)F)noc3C)n2)cc1 [IIIA-24] |
| > 1000 | COc1cc(OC)cc(C(=O)Nc2nccc(-c3c(-c4ccccc4C(F)(F)F)noc3C)n2)c1 [IIIA-25] |
| 100 to 1000 | COc1cc(C(=O)Nc2nccc(-c3c(-c4cccc(OCc5ccccc5)c4)noc3C)n2)cc(OC)c1OC [IIIA-30] |

| Ki [nM] | Compound |
| --- | --- |
| 100 to 1000 | COc1cccc(C(=O)Nc2nccc(-c3c(-c4cccc(OCc5ccccc5)c4)noc3C)n2)c1 [IIIA-31] |
| 100 to 1000 | COc1ccc(C(=O)Nc2nccc(-c3c(-c4cccc(OCc5ccccc5)c4)noc3C)n2)cc1 [IIIA-32] |
| 100 to 1000 | COc1cc(OC)cc(C(=O)Nc2nccc(-c3c(-c4cccc(OCc5ccccc5)c4)noc3C)n2)c1 [IIIA-33] |
| > 1000 | COc1cc(C(=O)Nc2nccc(-c3c(-c4cccc([N+](=O)[O-])c4)noc3C)n2)cc(OC)c1OC [IIIA-34] |
| > 1000 | COc1cccc(C(=O)Nc2nccc(-c3c(-c4cccc([N+](=O)[O-])c4)noc3C)n2)c1 [IIIA-35] |
| > 1000 | COc1ccc(C(=O)Nc2nccc(-c3c(-c4cccc([N+](=O)[O-])c4)noc3C)n2)cc1 [IIIA-36] |
| > 1000 | COc1cc(OC)cc(C(=O)Nc2nccc(-c3c(-c4cccc([N+](=O)[O-])c4)noc3C)n2)c1 [IIIA-37] |
| > 1000 | COc1cc(C(=O)Nc2nccc(-c3c(-c4cccc(C#N)c4)noc3C)n2)cc(OC)c1OC [IIIA-38] |
| > 1000 | COc1cccc(C(=O)Nc2nccc(-c3c(-c4cccc(C#N)c4)noc3C)n2)c1 [IIIA-39] |
| > 1000 | COc1ccc(C(=O)Nc2nccc(-c3c(-c4cccc(C#N)c4)noc3C)n2)cc1 [IIIA-40] |
| > 1000 | COc1cc(OC)cc(C(=O)Nc2nccc(-c3c(-c4cccc(C#N)c4)noc3C)n2)c1 [IIIA-41] |
| 100 to 1000 | COc1cc(OC)cc(C(=O)Nc2nccc(-c3c(-c4ccccc4)noc3C)n2)c1 [IIIA-42] |
| < 100 | Cc1onc(-c2ccccc2)c1-c1ccnc(NC(=O)c2cccc(C#N)c2)n1 [IIIA-43] |
| 100 to 1000 | COC(=O)c1ccc(C(=O)Nc2nccc(-c3c(-c4ccccc4)noc3C)n2)cc1 [IIIA-44] |
| 100 to 1000 | Cc1onc(-c2cccc(F)c2)c1-c1ccnc(NC(=O)c2cccc(Cl)c2)n1 [IIIA-45] |
| 100 to 1000 | COc1cccc(C(=O)Nc2nccc(-c3c(-c4cccc(F)c4)noc3C)n2)c1 [IIIA-46] |
| 100 to 1000 | COc1cc(OC)cc(C(=O)Nc2nccc(-c3c(-c4cccc(F)c4)noc3C)n2)c1 [IIIA-47] |
| 100 to 1000 | Cc1cccc(C(=O)Nc2nccc(-c3c(-c4cccc(F)c4)noc3C)n2)c1 [IIIA-48] |
| 100 to 1000 | Cc1onc(-c2cccc(F)c2)c1-c1ccnc(NC(=O)c2ccc(F)cc2)n1 [IIIA-49] |
| 100 to 1000 | Cc1ccc(C(=O)Nc2nccc(-c3c(-c4cccc(F)c4)noc3C)n2)cc1 [IIIA-50] |
| 100 to 1000 | Cc1onc(-c2cccc(F)c2)c1-c1ccnc(NC(=O)c2cccc(C#N)c2)n1 [IIIA-51] |
| 100 to 1000 | COc1cc(C(=O)Nc2nccc(-c3c(-c4cccc(F)c4)noc3C)n2)cc(OC)c1OC [IIIA-52] |
| 100 to 1000 | Cc1onc(-c2cccc(F)c2)c1-c1ccnc(NC(=O)c2ccc3ccccc3c2)n1 [IIIA-53] |
